Here are results for ten compounds from patent US4946858A, “Novel spirosuccinimides as aldose reductase inhibitors and antihyperglycemic agents” (American Home Products Corporation, priority 1989, dated 1990).

Like-named read-outs stand apart in the source and are kept apart here.

For assay [1], the system named is diabetic (db/db) mice. In words: Blood glucose lowering activity in diabetic (db/db) mice. In kind it is in vivo, mouse (db/db, C57BL/KsJ). As to conditions: for change in vivo at 100 mg/kg: Mus musculus, po, 96 h, 100 mg/kg/day p.o. (gavage), read-out: % Change from vehicle (plasma glucose). From the text: The blood glucose lowering activity of the compounds of this invention were demonstrable in experiments using diabetic (db/db) mice. […] The animals are obese, glucose intolerant and have fasting hyperglycemia which is sometimes accompanied by a paradoxical hyperinsulinemia. Furthermore, the db/db mouse will eventually develop some of the long-term complications that have been associated with diabetes mellitus. [See Coleman Diabetes, 31 (Suppl. 1), 1 (1982)]. In spite of these commonalities, the acute administration of sulfonylureas (even at extremely high dosages) will not reduce the hyperglycemia of the db/db mouse. [See Tutwiler et al, Diabetes 27, 856 (1978)]. […] On the morning of Day 1, 35 mice [male db/db (C57BL/KsJ), Jackson Laboratories, 2 to 7 months of age and body weight 35 to 60 g] were fasted for 4 hours, weighted and a baseline blood sample was collected from the tail-tip of each mouse without anesthesia, placed directly into a fluoride-containing tube, mixed and maintained on ice. Food was then returned to the mice. The plasma was separated and levels of glucose in plasma determined by the Abbott VP Analyzer. Because of the variable plasma glucose levels of the db/db mice, 5 mice having the most extreme (i.e., highest or lowest) plasma glucose levels were excluded and the remaining 30 mice were randomly assigned into […] of equivalent means plasma glucose levels: On the afternoon of Days 1, 2 and 3 the vehicle, control or test drugs were administered (p.o.) to the ad libitum fed mice. […] The test compounds were given by gavage at a dose of 100 mg/kg/day unless otherwise noted in Table 3. On the morning of Day 4, the mice were weighted and fasted, but water was available ad libitum. Three hours later, a blood sample was collected and then the mice were given the fourth administration of drug or vehicle. Blood samples were collected again from the unanesthetized mice at 2 and 4 hours after drug administration. The plasma was separated and levels of glucose in plasma determined by the Abbott VP Analyzer. For each mouse, the percent change of it's plasma glucose level on Day 4 (mean of the 2 and 4 hour samples) from it's respective level before drug administration (Day 1 baseline sample) was determined as follows: [formula] Analysis of variance followed by Dunnett's multiple comparison (one-sided) was used to estimate the degree of statistical significance of the difference between the vehicle group and the individual drug-treated groups. A drug was considered active, at the specific dosage administered,if the difference of the plasma glucose level has a p<0.05.

The test system of assay [2] is hyperglycemia and hyperinsulinemia. As to conditions: Fujita et al, Diabetes, 32, 804 (1983); cited from earlier work.
Assay [3] addresses T1, aldose reductase (Bos taurus, UniProt P16116).
T1 construct: preparation of the enzyme from bovine lens; from tissue; host or cells: bovine lens
In words: In vitro inhibition of aldose reductase (modified Hayman and Kinoshita procedure, enzyme from bovine lens). Format: biochemical. As to conditions: read-out: % Inhibition in Vitro; for inhibition at 1 µM: 10^-6 M. From the text:
In the present case the procedure of Hayman and Kinoshita was modified in that the final chromatography step was omitted in the preparation of the enzyme from bovine lens.

Assay [4] deals with galactosemic rats. The assay is described as follows: Lowering of galactitol (dulcitol) accumulation in tissues of galactosemic rats. In kind it is in vivo, rat (Sprague-Dawley). The settings on record: 4 days, vs untreated galactosemic rats. From the text:
The aldose reductase inhibiting property of the compounds of this invention and the utilization of the compounds in preventing, diminishing and alleviating diabetic complications by lowering polyol accumulation were also demonstrable in experiments using galactosemic rats, see Dvornik et al, Science, 182, 1146 (1973). Such experiments are exemplified hereinbelow after the listing of the following general comments pertaining to these experiments:
(a) Four or more groups of six male rats, 50-70 g, Sprague-Dawley strain, were used. The first group, the control group, was fed a mixture of laboratory chow (rodent Laboratory Chow, Purina) and glucose at 20% (w/w %) concentration. The untreated galactosemic group and the drug-treated groups were fed a similar diet in which galactose is substituted for glucose. The test compound was either admixed to the diet or administered by gavage. In experiments involving compound administration in the diet, the average dose administered was calculated from the actual food intake of the animals in each group. The concentration of galactose in the diet of the treated groups was the same as that for the untreated galactosemic groups.
(b) After four days, the amimals were killed by decapitation. The eyeballs were removed and punctured with a razor blade; the freed lenses were rolled gently on filter paper and weighed. The sciatic nerves were dissected as completely as possible and weighed. Both tissues when frozen can be kept up to two weeks before being analyzed for galactitol.
(c) The polyol determination was performed by a modification of the procedure of M. Kraml and L. Cosyns, Clin. Biochem., 2, 373 (1969). Only two minor reagent changes were made: (a) the rinsing mixture was an aqueous 5% (w/v) trichloroacetic acid solution and (b) the stock solution was prepared by dissolving 25 mg of dulcitol in 100 mL of an aqueous trichloroacetic acid solution. [N.B.: For each experiment the average value found in the tissue from rats fed the glucose diet was subtracted from the individual values found in the corresponding tissue in galactose-fed rats to obtain the amount of polyol accumulated.]
The figures under L, N, and D represent the percentage decrease of galactitol accumulation in the tissues of the lens, sciatic nerve, and diaphragm, respectively, for treated rats as compared to untreated rats.

[5] abbreviates: Day 4 mean of 2 and 4 hour samples vs Day 1 baseline, difference from vehicle.

For `CC1(COc2ccc(CC3SC(=O)NC3=O)cc2)CCCCC1` (racemic) [Ciglitazone, (±)-5-[4-[(1-methylcyclohexyl)methoxy]benzyl]-thiazolidine-2,4-dione, reference compound], the change in vivo at 100 mg/kg in assay [1] (setting [5]) is -33%. The “effect on hyperglycemia and hyperinsulinemia” value in assay [2] is recorded as “normalizes these parameters”.

For orientation: inhibition means the share of the control response that was lost under treatment. For `CN1C(=O)c2cc(Cl)c(Cl)cc2C12CC(=O)NC2=O` (centres unmarked) [Example 122, 5,6-dichloro-2-methylspiro[1H-isoindole-1,3'-pyrrolidine]-2',3,5'(2H)-trione], the change in vivo at 100 mg/kg in assay [1] (setting [5]) is -31%. In assay [3], the inhibition at 1 µM worked out at 83% and the inhibition at 10 µM came out at 94%. In assay [4] (3 mg/kg), the “% Lowering of dulcitol accumulation In Vivo, % D (diaphragm)” value (“% Lowering … (diaphragm)” for short) came out at 25% and the “% Lowering of dulcitol accumulation In Vivo, % N (sciatic nerve)” value is given as 20%. Further, in assay [4] (50 mg/kg), the “% Lowering … (diaphragm)” value is reported as 90%; the “% Lowering of dulcitol accumulation In Vivo, % L (lens)” value was 71%; the “% Lowering of dulcitol accumulation In Vivo, % N (sciatic nerve)” value stood at 94%.

As to `O=C1CC2(C(=O)N1)c1ccccc1C(=O)N2Cc1ccc(Cl)c(Cl)c1` (centres unmarked) [Example 115], in assay [1] (setting [5]), the change in vivo at 100 mg/kg was -21%. Further, in assay [3] (10^-5 M), the inhibition at 10 µM was found to be 82%. Besides, in assay [3], the inhibition at 1 µM came out at 45%.

On to `O=C1CC2(C(=O)N1)c1ccccc1S(=O)(=O)N2Cc1ccc(Cl)c(Cl)c1` (centres unmarked) [Example 105], for which, in assay [1] (setting [5]), the change in vivo at 100 mg/kg was -27%. The inhibition at 10 µM in assay [3] (10^-5 M) was 63%. Further, the inhibition at 1 µM in assay [3] amounted to 16%.

`O=C1CC2(C(=O)N1)c1ccccc1S(=O)(=O)N2Cc1ccc(Br)cc1F` (centres unmarked) [Example 104, 2-[(4-bromo-2-fluorophenyl)methyl]-2,3-dihydrospiro[1,2-benzisothiazole-3,3'-pyrrolidine]-2',5'-dione 1,1-dioxide]: in assay [1] (100 mg/kg, db/db mice), the “comparison with ciglitazone, blood glucose lowering” value was “gives comparable results to ciglitazone at 100 mg/kg”. The change in vivo at 100 mg/kg in assay [1] (setting [5]) is -48%. Besides, the inhibition at 10 µM in assay [3] (10^-5 M) is 52%. Besides, the inhibition at 1 µM in assay [3] was 3%. Moreover, the “% Lowering of dulcitol accumulation In Vivo, % L (lens)” value in assay [4] (104 mg/kg) came to 13%.

With `O=C1CC2(C(=O)N1)c1ccccc1C(=O)N2Cc1ccccc1` (centres unmarked) [Example 114], the change in vivo at 100 mg/kg in assay [1] (setting [5]) was -22%.

In the case of `O=C1CC2(C(=O)N1)c1ccccc1C(=O)N2Cc1ccc(Br)cc1F` (centres unmarked) [Example 116, 2-[(4-bromo-2-fluorophenyl)methyl]spiro[1H-isoindole-1,3'pyrrolidine]-2',3,5'(2H)-trione], the change in vivo at 100 mg/kg in assay [1] (setting [5]) is -36%. Also, the inhibition at 10 µM in assay [3] (10^-5 M) was 84%. Besides, the inhibition at 1 µM in assay [3] was found to be 54%. Further, the “% Lowering … (diaphragm)” value in assay [4] (101 mg/kg) was 30%.

As to `O=C1CC2(C(=O)N1)c1ccccc1S(=O)(=O)N2Cc1ccc(Br)cc1` (centres unmarked) [Example 106, 2-[(4-bromophenyl)methyl]-2,3-dihydrospiro[1,2-benzisothiazole-3,3'-pyrrol-idine]-2',5'-dione 1,1-dioxide], the change in vivo at 100 mg/kg in assay [1] (setting [5]) was -37%.

`CC(C)N1C2(CC(=O)NC2=O)c2ccccc2S1(=O)=O` (centres unmarked) [Example 111]: in assay [1] (87 mg/kg/day p.o. (gavage), Day 4 mean of 2 and 4 hour samples vs Day 1 baseline, difference from vehicle), the “% Change from vehicle (plasma glucose)” value was -27%.

Regarding `O=C1CC2(C(=O)N1)c1ccccc1S(=O)(=O)N2Cc1c(F)cccc1Cl` (centres unmarked) [Example 110], the change in vivo at 100 mg/kg in assay [1] (setting [5]) was -17%.
